According to patent US20230167070A1, “MODULATORS OF TREX1” (Constellation Pharmaceuticals, Inc., priority 2020, published 2023):

Experiments:
full length human TREX1 = molecular target: T1, full length human TREX1 (Homo sapiens, UniProt Q9NSU2); experiment: TREX1 Biochemical Assay (fluorescence, dsDNA substrate degradation); settings: 150 pM TREX1, 60 nM dsDNA substrate, 25 minutes at room temperature
T1 construct: N-terminally His-Tev tagged full length human TREX1; made in house; host or cells: E. coli
T1 sequence (Q9NSU2 1-314): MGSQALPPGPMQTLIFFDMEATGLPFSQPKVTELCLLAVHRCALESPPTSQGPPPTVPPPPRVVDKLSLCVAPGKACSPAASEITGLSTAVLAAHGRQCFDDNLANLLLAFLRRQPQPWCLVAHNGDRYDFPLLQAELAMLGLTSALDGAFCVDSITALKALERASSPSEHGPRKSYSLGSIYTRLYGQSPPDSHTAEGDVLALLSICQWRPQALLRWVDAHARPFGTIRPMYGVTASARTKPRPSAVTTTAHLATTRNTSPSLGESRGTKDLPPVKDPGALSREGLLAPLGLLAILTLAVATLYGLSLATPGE
Experimental: Degradation of the dsDNA liberates free fluorophore to produce a fluorescent signal. Specifically, 7.5 μL of N-terminally His-Tev tagged full length human TREX1 (expressed in E. coli and purified in house) in reaction buffer (50 mM Tris (pH 7.4), 150 mM NaCl, 2 mM DTT, 0.1 mg/mL BSA, 0.01% (v/v) Tween-20 and 100 mM MgCl2) was added to a 384-well Black ProxiPlate Plus (Perkin Elmer) which already contained compound (150 nL) at varying concentrations as a 10 point dose-response in DMSO. To this was added 7.5 μL of dsDNA substrate (Strand A: 5′ TEX615/GCT AGG CAG 3′; Strand B: 5′ CTG CCT AGC/IAbRQSp (Integrated DNA Technologies)) in reaction buffer. Final concentrations were 150 pM TREX1, 60 nM dsDNA substrate in reaction buffer with 1.0% DMSO (v/v). After 25 minutes at room temperature, reactions were quenched by the addition of 5 μL of stop buffer (same as reaction buffer plus 200 mM EDTA). Final concentrations in the quenched reaction were 112.5 pM TREX1, 45 nM DNA and 50 mM EDTA in a volume of 20 μL. After a 5-minute incubation at room temperature, plates were read in a laser sourced Envision (Perkin-Elmer), measuring fluorescence at 615 nm following excitation w/570 nm light. IC50 values were calculated by comparing the measured fluorescence at 615 nm ratio relative to control wells pre-quenched w/stop buffer (100% inhibition) and no inhibitor (0% inhibition) controls as using non-linear least square four parameter fits and either Genedata or GraphPad Prism (GraphPad Software, Inc.).

[1] = molecular target: T2, human TREX2 (residues M44-A279) (Homo sapiens, UniProt Q9BQ50); experiment: TREX2 Biochemical Assay (fluorescence, dsDNA substrate degradation); settings: 2.5 nM TREX2, 60 nM dsDNA substrate, 25 minutes at room temperature
T2 construct: human TREX2 (residues M44-A279, expressed in E. coli); made in house; host or cells: E. coli
T2 sequence (Q9BQ50 44-279 isoform Q9BQ50-1): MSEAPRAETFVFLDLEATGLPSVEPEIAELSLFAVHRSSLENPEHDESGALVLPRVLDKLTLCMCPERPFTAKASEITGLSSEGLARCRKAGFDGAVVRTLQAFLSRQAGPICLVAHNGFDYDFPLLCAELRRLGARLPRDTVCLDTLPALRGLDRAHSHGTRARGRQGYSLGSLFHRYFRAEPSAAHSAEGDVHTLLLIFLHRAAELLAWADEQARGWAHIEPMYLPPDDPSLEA
Experimental: Degradation of the dsDNA liberates free fluorophore to produce a fluorescent signal. Specifically, 7.5 μL of N-terminally His-Tev tagged human TREX2 (residues M44-A279, expressed in E. coli and purified in house) in reaction buffer (50 mM Tris (pH 7.4), 150 mM NaCl, 2 mM DTT, 0.1 mg/mL BSA, 0.01% (v/v) Tween-20 and 100 mM MgCl2) was added to a 384-well Black ProxiPlate Plus (Perkin Elmer) which already contained compound (150 nL) at varying concentrations as a 10 point dose-response in DMSO. To this was added 7.5 μL of dsDNA substrate (Strand A: 5′ TEX615/GCT AGG CAG 3′; Strand B: 5′ CTG CCT AGC/IAbRQSp (IDT)) in reaction buffer. Final concentrations were 2.5 nM TREX2, 60 nM dsDNA substrate in reaction buffer with 1.0% DMSO (v/v). After 25 minutes at room temperature, reactions were quenched by the addition of 5 μL of stop buffer (same as reaction buffer plus 200 mM EDTA). Final concentrations in the quenched reaction mixture were […] TREX2, 45 nM DNA and 50 mM EDTA in a volume of 20 μL. After a 5-minute incubation at room temperature, plates were read in a laser sourced Envision (Perkin-Elmer), measuring fluorescence at 615 nm following excitation w/570 nm light. IC50 values were calculated by comparing the measured fluorescence at 615 nm ratio relative to control wells pre-quenched w/stop buffer (100% inhibition) and no inhibitor (0% inhibition) controls as using non-linear least square four parameter fits and either Genedata or GraphPad Prism (GraphPad Software, Inc.).

| Compound | IC50 (full length human TREX1) | IC50 [1] |
| --- | --- | --- |
| CN(c1nc(C(=O)NC2COC2)c(O)c(=O)n1C)C(c1ccccc1)c1ccccc1 [Example 9, 2-(benzhydryl(methyl)amino)-5-hydroxy-1-methyl-N-(oxetan-3-yl)-6-oxo-1,6-dihydropyrimidine-4-carboxamide] | > 10000 nM | 10 to 100 µM |
| COCCNC(=O)c1nc(N(C)C(c2ccccc2)c2ccccc2)n(C)c(=O)c1O [Example 11, 2-(benzhydryl(methyl)amino)-5-hydroxy-N-(2-methoxyethyl)-1-methyl-6-oxo-1,6-dihydropyrimidine-4-carboxamide] | > 10000 nM | 10 to 100 µM |
| CN(c1nc(C(=O)N[C@@H]2CCOC2)c(O)c(=O)n1C)C(c1ccccc1)c1ccccc1 [Example 4, (R)-2-(benzhydryl(methyl)amino)-5-hydroxy-1-methyl-6-oxo-N-(tetrahydrofuran-3-yl)-1,6-dihydropyrimidine-4-carboxamide] | > 10000 nM | 10 to 100 µM |
| CN(c1nc(C(=O)Nc2cccc(C(F)(F)F)c2)c(O)c(=O)n1C)C(c1ccccc1)c1ccccc1 [Example 27, 2-(benzhydryl(methyl)amino)-5-hydroxy-1-methyl-6-oxo-N-(3-(trifluoromethyl)phenyl)-1,6-dihydropyrimidine-4-carboxamide] | > 10000 nM | 10 to 100 µM |
| CN(c1nc(C(=O)Nc2cc(F)ccn2)c(O)c(=O)n1C)C(c1ccccc1)c1ccccc1 [Example 23, 2-(benzhydryl(methyl)amino)-N-(4-fluoropyridin-2-yl)-5-hydroxy-1-methyl-6-oxo-1,6-dihydropyrimidine-4-carboxamide] | 1000 to 10000 nM | 1 to 10 µM |
| CN(c1nc(C(=O)Nc2ccc(F)cc2)c(O)c(=O)n1C)[C@H](c1ccccc1)c1ccccc1Cl (stereo in doubt) [Example 29, 2-(((2-chlorophenyl)(phenyl)methyl)(methyl)amino)-N-(4-fluorophenyl)-5-hydroxy-1-methyl-6-oxo-1,6-dihydropyrimidine-4-carboxamide] | 100 to 1000 nM | < 1 µM |
| CN(c1nc(C(=O)Nc2cncs2)c(O)c(=O)n1C)C(c1ccccc1)c1ccccc1 [Example 31, 2-(benzhydryl(methyl)amino)-5-hydroxy-1-methyl-6-oxo-N-(thiazol-5-yl)-1,6-dihydropyrimidine-4-carboxamide] | 100 to 1000 nM | 1 to 10 µM |
| CN(c1nc(C(=O)N[C@H]2CCOC2)c(O)c(=O)n1C)C(c1ccccc1)c1ccccc1 [Example 3, (S)-2-(benzhydryl(methyl)amino)-5-hydroxy-1-methyl-6-oxo-N-(tetrahydrofuran-3-yl)-1,6-dihydropyrimidine-4-carboxamide] | > 10000 nM | 10 to 100 µM |

Results, then the compound that gave them:

| IC50 (full length human TREX1) | IC50 [1] | Compound |
| --- | --- | --- |
| 100 to 1000 nM | 1 to 10 µM | Cc1oncc1NC(=O)c1nc(N(C)C(c2ccccc2)c2ccccc2)n(C)c(=O)c1O [Example 36, 2-(benzhydryl(methyl)amino)-5-hydroxy-1-methyl-N-(5-methylisoxazol-4-yl)-6-oxo-1,6-dihydropyrimidine-4-carboxamide] |
| < 100 nM | < 1 µM | CN(c1nc(C(=O)Nc2ccccc2F)c(O)c(=O)n1C)C(c1ccccc1)c1ccccc1 [Example 17, 2-(benzhydryl(methyl)amino)-N-(2-fluorophenyl)-5-hydroxy-1-methyl-6-oxo-1,6-dihydropyrimidine-4-carboxamide] |
| 100 to 1000 nM | < 1 µM | CN(c1nc(C(=O)Nc2ccc(F)cc2)c(O)c(=O)n1C)C(c1ccccc1)c1ccccc1 [Example 18, 2-(benzhydryl(methyl)amino)-N-(4-fluorophenyl)-5-hydroxy-1-methyl-6-oxo-1,6-dihydropyrimidine-4-carboxamide] |
| < 100 nM | < 1 µM | CN(c1nc(C(=O)Nc2ccccc2)c(O)c(=O)n1C)C(c1ccccc1)c1ccccc1 [Example 15, 2-(benzhydryl(methyl)amino)-5-hydroxy-1-methyl-6-oxo-N-phenyl-1,6-dihydropyrimidine-4-carboxamide] |
| 100 to 1000 nM | 10 to 100 µM | Cc1noc(C)c1NC(=O)c1nc(N(C)C(c2ccccc2)c2ccccc2)n(C)c(=O)c1O [Example 33, 2-(benzhydryl(methyl)amino)-N-(3,5-dimethylisoxazol-4-yl)-5-hydroxy-1-methyl-6-oxo-1,6-dihydropyrimidine-4-carboxamide] |
| 100 to 1000 nM | 1 to 10 µM | CN(c1nc(C(=O)Nc2cncc(F)c2)c(O)c(=O)n1C)C(c1ccccc1)c1ccccc1 [Example 24, 2-(benzhydryl(methyl)amino)-N-(5-fluoropyridin-3-yl)-5-hydroxy-1-methyl-6-oxo-1,6-dihydropyrimidine-4-carboxamide] |
| 100 to 1000 nM | 10 to 100 µM | CN(c1nc(C(=O)NCCC(F)(F)F)c(O)c(=O)n1C)C(c1ccccc1)c1ccccc1 [Example 13, 2-(benzhydryl(methyl)amino)-5-hydroxy-1-methyl-6-oxo-N-(3,3,3-trifluoropropyl)-1,6-dihydropyrimidine-4-carboxamide] |
| 100 to 1000 nM | < 1 µM | CN(c1nc(C(=O)Nc2ccccn2)c(O)c(=O)n1C)C(c1ccccc1)c1ccccc1 [Example 25, 2-(benzhydryl(methyl)amino)-5-hydroxy-1-methyl-6-oxo-N-(pyridin-2-yl)-1,6-dihydropyrimidine-4-carboxamide] |
| < 100 nM | < 1 µM | CN(c1nc(C(=O)Nc2cccc(F)c2F)c(O)c(=O)n1C)C(c1ccccc1)c1ccccc1 [Example 22, 2-(benzhydryl(methyl)amino)-N-(2,3-difluorophenyl)-5-hydroxy-1-methyl-6-oxo-1,6-dihydropyrimidine-4-carboxamide] |
| 100 to 1000 nM | < 1 µM | CN(c1nc(C(=O)Nc2cc(F)cc(F)c2)c(O)c(=O)n1C)C(c1ccccc1)c1ccccc1 [Example 21, 2-(benzhydryl(methyl)amino)-N-(3,5-difluorophenyl)-5-hydroxy-1-methyl-6-oxo-1,6-dihydropyrimidine-4-carboxamide] |
